≈ marks a conversion by molar mass, not a printed value.

The assay relates to Moraxella catarrhalis A894. Put plainly: MIC by broth microdilution (cation-adjusted Mueller-Hinton Broth, CLSI M7-A7). Format: cell-based. The procedure:
Minimal inhibitory concentrations (MICS; mg/l) were determined in cation-adjusted Mueller-Hinton Broth by a microdilution procedure following the description given in “Procedures for Dilution Antimicrobial Susceptibility Tests for Bacteria that Grow Aerobically”, Approved standard, 7th ed., Clinical and Laboratory Standards Institute (CLSI) Document M7-A7, Wayne, Pa., USA, 2006. All Example compounds were tested against several Gram positive and Gram negative bacteria such as S. aureus, E. faecalis, S. pneumoniae, M. catarrhalis, A. baumanii, E. coli or P. aeruginosa.
On to `COc1ccc2c(c1)N(CCCNC[C@@H]1CN(c3ccc4c(c3)OCCO4)C(=O)O1)C(=O)CC2` [Example 28, 1-(3-{[(R)-3-(2,3-dihydro-benzo[1,4]dioxin-6-yl)-2-oxo-oxazolidin-5-ylmethyl]-amino}-propyl)-7-methoxy-3,4-dihydro-1H-quinolin-2-one], for which 1 µg/mL (≈ 2.14 µM) was the least that counted as inhibitory (MIC).

On to `COc1ccc2ncc(=O)n(CCCNC[C@@H]3CN(c4ccc5c(c4)OCCO5)C(=O)O3)c2n1` [Example 18, 4-(3-{[(R)-3-(2,3-dihydro-benzo[1,4]dioxin-6-yl)-2-oxo-oxazolidin-5-ylmethyl]-amino}-propyl)-6-methoxy-4H-pyrido[2,3-b]pyrazin-3-one], for which the MIC (as a rule, the lowest concentration that inhibits growth of the organism) was no more than 0.031 µg/mL. `COc1ccc2ncc(=O)n(CCNCCC3CN(c4ccc5c(n4)NC(=O)CO5)C(=O)O3)c2n1` (racemic) [Example 33, rac-6-(5-{2-[2-(6-methoxy-3-oxo-3H-pyrido[2,3-b]pyrazin-4-yl)-ethylamino]-ethyl}-2-oxo-oxazolidin-3-yl)-4H-pyrido[3,2-b][1,4]oxazin-3-one] gave an MIC of no more than 0.031 µg/mL. To `COc1ccc2ncc(=O)n(C3CN(CCC[C@@H]4CN(c5ccc6c(c5)NC(=O)CS6)C(=O)O4)C3)c2n1` [Example 23, 6-methoxy-4-(1-{3-[(R)-2-oxo-3-(3-oxo-3,4-dihydro-2H-benzo[1,4]thiazin-6-yl)-oxazolidin-5-yl]-propyl}-azetidin-3-yl)-4H-pyrido[2,3-b]pyrazin-3-one] belongs no more than 0.031 µg/mL; to `COc1ccc2ccc(=O)n(CCCNC[C@@H]3CN(c4ccc5c(c4)NC(=O)CS5)C(=O)O3)c2c1` [Example 1, 6-((R)-5-{[3-(7-methoxy-2-oxo-2H-quinolin-1-yl)-propylamino]-methyl}-2-oxo-oxazolidin-3-yl)-4H-benzo[1,4]thiazin-3-one], no more than 0.031 µg/mL; to `COc1ccc2ncc(=O)n(CCC(=O)NC[C@@H]3CN(c4ccc5c(c4)NC(=O)CS5)C(=O)O3)c2c1` [Example 6, 3-(7-methoxy-2-oxo-2H-quinoxalin-1-yl)-N-[(R)-2-oxo-3-(3-oxo-3,4-dihydro-2H-benzo[1,4]thiazin-6-yl)-oxazolidin-5-ylmethyl]-propionamide], no more than 0.031 µg/mL.

With `COc1ccc2ncc(=O)n(CCCNC[C@@H]3CN(c4ccc5c(c4)NC(=O)CO5)C(=O)O3)c2n1` [Example 19, 6-methoxy-4-(3-{[(R)-2-oxo-3-(3-oxo-3,4-dihydro-2H-benzo[1,4]oxazin-6-yl)-oxazolidin-5-ylmethyl]-amino}-propyl)-4H-pyrido[2,3-b]pyrazin-3-one], the MIC was no more than 0.031 µg/mL.

Source of the values: US8349826B2, “Oxazolidinone derivatives” (Actelion Pharmaceuticals Ltd., priority 2008, dated 2013).
